Source: patent US5189169A (priority 1991, dated 1993)
Where “and” joins values, the source holds several entries; their conditions need not be identical. Equal entries are not always repeated.

Tests used:
Conditions in all cases: in vivo
[1] = system: three grassy weeds (wild oat, watergrass, foxtail); design: species or system Avena fatua, Echinochloa crusgalli, Setaria viridis
[2] = system: three broadleaf weeds (morning glory, mustard, velvetleaf); design: species or system Ipomoea purpurea, Brassica kaber, Abutilon theophrasti
yellow nutsedge [3] = system: yellow nutsedge; design: species or system Cyperus esculentus
[4] = system: three grassy weeds (wild oat, watergrass, foxtail); design: species or system Avena fatua, Echinochloa crusgalli, Setaria viridis; remark: listed apart in the source
[5] = system: three broadleaf weeds (morning glory, mustard, velvetleaf); design: species or system Ipomoea purpurea, Brassica kaber, Abutilon theophrasti; remark: listed apart in the source
yellow nutsedge [6] = system: yellow nutsedge; design: species or system Cyperus esculentus; remark: listed apart in the source

SMILES	% Control, Pre-emergence, GR avg. [1]	% Control, Pre-emergence, BL avg. [2]	% Control, Pre-emergence, NS (yellow nutsedge [3])	% Control, Post-emergence, GR avg. [4]	% Control, Post-emergence, BL avg. [5]	% Control, Post-emergence, NS (yellow nutsedge [6])
CCCN(CCC)P(=O)(SC(C)(C)C)N(CCC)CCC [Compound 3]	0%	100%	0%	80% and 70%	80% and 100%	5% and 0%
CCCCN(CCCC)P(=O)(SCCC)N(C)c1ccc(Cl)cc1Cl (stereo not drawn) [Compound 23]	0%	0%	0%	20% and 13%	50% and 43%	0%
